# Experimental data as given in paper PMC3867539 (Angewandte Chemie (International ed. in English), 2013).
# Legend:
# CYP71A12 = CYP71A12 (Arabidopsis thaliana, UniProt O49340); conditions: estimate only, not a measured constant; Cys as thiol donor
# CYP71A13 = CYP71A13 (Arabidopsis thaliana, UniProt O49342); conditions: estimate only, not a measured constant; Cys as thiol donor
# Sequence of CYP71A13 (O49342 whole entry): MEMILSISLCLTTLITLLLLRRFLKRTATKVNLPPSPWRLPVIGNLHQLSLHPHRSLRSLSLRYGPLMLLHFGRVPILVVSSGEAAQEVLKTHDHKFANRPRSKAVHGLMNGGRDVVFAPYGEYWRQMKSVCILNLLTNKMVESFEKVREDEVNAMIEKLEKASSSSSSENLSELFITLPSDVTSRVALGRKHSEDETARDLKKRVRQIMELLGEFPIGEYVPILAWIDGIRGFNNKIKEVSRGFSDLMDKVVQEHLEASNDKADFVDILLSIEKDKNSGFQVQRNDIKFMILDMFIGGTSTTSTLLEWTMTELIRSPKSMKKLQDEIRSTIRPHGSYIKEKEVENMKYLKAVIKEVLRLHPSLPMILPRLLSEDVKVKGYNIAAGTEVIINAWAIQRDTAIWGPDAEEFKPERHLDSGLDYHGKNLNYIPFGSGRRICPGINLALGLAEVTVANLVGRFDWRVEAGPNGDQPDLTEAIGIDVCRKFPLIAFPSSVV
# Sequence of CYP71A12 (O49340 whole entry): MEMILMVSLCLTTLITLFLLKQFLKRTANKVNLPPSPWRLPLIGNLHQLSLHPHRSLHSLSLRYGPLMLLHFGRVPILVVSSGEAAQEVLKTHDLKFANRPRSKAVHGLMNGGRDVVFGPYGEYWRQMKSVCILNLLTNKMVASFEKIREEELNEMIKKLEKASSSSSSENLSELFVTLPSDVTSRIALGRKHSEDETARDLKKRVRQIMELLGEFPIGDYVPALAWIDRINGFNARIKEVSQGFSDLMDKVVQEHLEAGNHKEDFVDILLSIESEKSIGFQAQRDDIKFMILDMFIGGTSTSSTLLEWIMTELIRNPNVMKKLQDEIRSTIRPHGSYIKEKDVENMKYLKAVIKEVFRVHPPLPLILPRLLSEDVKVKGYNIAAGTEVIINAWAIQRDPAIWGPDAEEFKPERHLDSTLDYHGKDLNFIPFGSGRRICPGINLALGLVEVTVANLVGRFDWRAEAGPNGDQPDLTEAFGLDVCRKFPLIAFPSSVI
smiles,measurement,setting,value
N#CCc1c[nH]c2ccccc12 [IAN],Km,CYP71A12,> 100 µM
same,Km,CYP71A13,> 100 µM
